Experimental data: patent publication US9587187B2, “Alkyl trityl phenyl ethers” (Rohm and Haas Company, priority 2013, dated 2017)

Assay: Solubility studies of alkyl trityl phenyl ethers in solvents at −10° C.
Type: physicochemical
Settings: freezer at −10° C., checked daily for crystallization
Method: Solubility Studies: The solubility properties of the alkyl trityl phenyl ethers were determined by mixing 0.1 grams of test sample with 0.9 grams of solvent. The mixtures were warmed to 60° C. for a few minutes to make homogeneous solutions. The solutions were cooled back to room temperature, and then they were placed into a freezer at −10° C. The solutions were checked daily to see if crystallization had occurred. The solvents evaluated were ADVASOL 200H (mixed aromatics solvent from Advanced Aromatics), ADVASOL 200H ND (naphthalene-depleted mixed aromatics solvent from Advanced Aromatics), cyclohexanone, and o-sec-butyl phenol (OSBP).

[1] = 10 wt.% alkyl trityl phenyl ether in 200H - OSBP (75:25, w:w)
[2] = 10 wt.% alkyl trityl phenyl ether in 200H - cyclohexanone (75:25, w:w)
[3] = 10 wt.% alkyl trityl phenyl ether in 200H ND - OSBP (75:25, w:w)
[4] = 10 wt.% alkyl trityl phenyl ether in 200H ND - cyclohexanone (75:25, w:w)

| Solubility at −10° C., Days [1] | Solubility at −10° C., Days [2] | Solubility at −10° C., Days [3] | Solubility at −10° C., Days [4] | Solubility at −10° C., Days (10 wt.% alkyl trityl phenyl ether in 200H (ADVASOL 200H mixed aromatics solvent)) | Solubility at −10° C., Days (10 wt.% alkyl trityl phenyl ether in 200H ND (naphthalene-depleted mixed aromatics solvent)) | SMILES |
| --- | --- | --- | --- | --- | --- | --- |
| Soluble after 102 | Soluble after 102 | – | – | – | – | CCCCCCCCCCOc1ccc(C(c2ccccc2)(c2cccc(C)c2)c2cccc(C)c2)cc1C(C)CC (stereo not drawn) [mmMS4-10] |
| Soluble after 76 days | Soluble after 7 days | Soluble after 76 days | Soluble after 7 days | – | – | CCCCCCOc1ccc(C(c2ccccc2)(c2ccccc2)c2ccc(C)cc2)cc1OCCCCCC [pM3,4-6, ((3,4-Bis(hexyloxy)phenyl)(p-tolyl)methylene)dibenzene] |
| Soluble after 7 days | Soluble after 7 days | Soluble after 7 days | Soluble after 7 days | Soluble after 7 days | Soluble after 7 days | CCCCCCCCCCOc1ccc(C(c2ccccc2)(c2ccccc2)c2ccc(C)cc2)cc1C(C)CC (stereo not drawn) [pMS4-10] |
